The values that follow come from US20210000830A1, “CANCER TREATMENT METHOD USING Trk INHIBITOR AND KINASE INHIBITOR IN COMBINATION” (ONO PHARMACEUTICAL CO., LTD., priority 2017, published 2021).

Assay [1] relates to TPM3-NTRK1-positive human colon cancer cell lines KM12. In words: Growth inhibition test in TPM3-NTRK1 positive KM12 cell lines (CellTiter-Glo, combination index). Particulars: named kinase inhibitor used in combination with compound A; KM12 cells, 72 hours; CI<1 synergistic. It is filed as cell-based. How it is done: Pharmacological Experiment Example 3: Growth Inhibition Test in TPM3-NTRK1 Positive KM12 Cell Lines
Using KM12 as TPM3-NTRK1-positive human colon cancer cell lines, an effect when 1-{2-[4-(2-amino-5-chloro-3-pyridinyl)phenoxy]-5-pyrimidinyl}-3-[2-(methylsulfonyl)-5-(trifluoromethyl)phenyl]urea (hereinafter sometimes referred to as a compound A) and trametinib, selumetinib, palbociclib, afatinib or erlotinib were combined was evaluated. Cells were subcultured using a DMEM containing a 10 vol % inactivated fetal bovine serum (FBS) and 1 vol % penicillin-streptomycin liquid as a culture medium before they underwent the experiment.
One day before the compound was treated, cells were floated using 0.25% Trypsin-EDTA, and the cells were collected into a centrifuge tube from a culture flask. At room temperature, 180 g of the cells were centrifuged for 3 minutes, and the cell sediment was then suspended in a DMEM culture medium. A part of the cell suspension was collected, the number of cells was counted, and the cells were then suspended in the DMEM culture medium at a cell density of 3.75×10^4 cells/mL to prepare a cell suspension. The cell suspension was inoculated at 80 μL/well in a 96-well tissue culture plate (Asahi Glass Co., Ltd.), and left for 24 hours under 37° C., 5% CO2, and 95% air conditions.
On the day when the compound was treated, 10 mM of each compound (DMSO solution) was serially diluted with DMSO to prepare a diluted solution. The diluted solution of each compound and DMSO were diluted 100-fold in a culture medium to prepare a 10-fold concentration of the treatment solution of each compound and the medium solution. The compound A solution or medium solution prepared above was added at 10 μL/well to wells of a 96-well tissue culture plate in which cells were stationary-cultured for 24 hours. Then, in the same manner, the trametinib, selumetinib, palbociclib, afatinib or erlotinib solution or the medium solution was added at 10 μL/well to wells of the 96-well tissue culture plate. […]
After the stationary culture was completed, a luminescent signal (relative luminescent unit, RLU) of each well was measured by a microplate reader using a CellTiter-Glo Luminescent Cell Viability Assay kit (Promega, G7571). An average value of RLUs of 3 wells of a medium group (a group treated with a medium solution having a compound concentration of zero (0)) was calculated, and a growth inhibition rate in each well was calculated by the following mathematical formula. […]
In order to analyze the combined effect, using a fluorescence intensity, the effective dose (ED)50, ED75, ED90 and ED95 were calculated, and a combination index (CI) described in Advances in enzyme regulation, vol. 22, 1984, pp. 27-55 was calculated for analysis. […]

Assay [2] relates to ETV6-NTRK3 positive human leukemia cell lines IMS-M2. In words: Growth inhibition experiment in ETV6-NTRK3 positive IMS-M2 cell lines (combination index). The conditions noted are these: named kinase inhibitor used in combination with compound A; IMS-M2 cells, 72 hours; CI<1 synergistic. It is filed as cell-based. On the procedure: Cells were subcultured using an RPMI culture medium containing a 10 vol % FBS and 1 vol % penicillin-streptomycin liquid before they underwent the experiment.
On the day when the compound was treated, cells were collected from a culture flask into a centrifuge tube. At room temperature, 300 g of cells were centrifuged for 3 minutes, and the cell sediment was then suspended in the RPMI culture medium.
The diluted solution of each compound and DMSO were diluted 100-fold in a culture medium to prepare a 10-fold concentration of the treatment solution of each compound and the medium solution.

The test system of assay [3] is KM12-AR (compound A resistant KM12 cell lines). In words: Growth inhibition test in compound A resistant KM12 cell lines (KM12-AR). Type of assay: cell-based, human. The conditions noted are these: KM12-AR cells; single treatment. On the procedure: Pharmacological Experiment Example 5: Growth Inhibition Test in Compound a Resistant KM12 Cell Lines
Using KM12 as TPM3-NTRK1-positive human colon cancer cell lines, a strain resistant to the compound A was established. A DMEM (Life technologies, product number: 11965) containing a 10 vol % FBS and 1 vol % penicillin-streptomycin liquid was prepared as a culture medium. The thawed KM12 was suspended in the culture medium. At room temperature, 180 g was centrifuged for 3 minutes, the supernatant was removed by suction, and the cell sediment was then re-suspended in the culture medium, and a total amount of 50 mL was inoculated in a 225 cm^2 flask (Asahi Glass Co., Ltd.). […]
Then, every two or three days, the culture medium was replaced or subcultured. […] The cell sediment was suspended in the DMEM culture medium, a part of the cell suspension was then collected, and the number of viable cells was counted. […]
Using KM12-AR, an effect when the compound A and trametinib, selumetinib, palbociclib, gefitinib, erlotinib, afatinib, lapatinib, neratinib or canertinib were combined was evaluated. […]
On the day when the compound was treated, 10 mM of each compound (DMSO solution) was serially diluted with DMSO to prepare a diluted solution. […] After the compound was added, the growth inhibition rate was calculated in the same method as in Pharmacological Experiment Example 3.

On to `CC(=O)c1c(C)c2cnc(Nc3ccc(N4CCNCC4)cn3)nc2n(C2CCCC2)c1=O` [Palbociclib, palbociclib], for which the “CI (median value)” value in assay [1] is reported as 0.660; in assay [2], 0.719. With `CN(C)C/C=C/C(=O)Nc1cc2c(Nc3ccc(F)c(Cl)c3)ncnc2cc1O[C@H]1CCOC1` [Afatinib, afatinib], the figures for the “CI (median value)” value in assay [1] and in assay [2] were 0.861 and 0.869, respectively.

Turning to `CS(=O)(=O)c1ccc(C(F)(F)F)cc1NC(=O)Nc1cnc(Oc2ccc(-c3cc(Cl)cnc3N)cc2)nc1` [1-{2-[4-(2-amino-5-chloro-3-pyridinyl)phenoxy]-5-pyrimidinyl}-3-[2-(methylsulfonyl)-5-(trifluoromethyl)phenyl]urea], the “growth inhibitory effect, treated alone” value in assay [3] was “no growth inhibitory effect was observed”. Consider `CC(=O)Nc1cccc(-n2c(=O)n(C3CC3)c(=O)c3c(Nc4ccc(I)cc4F)n(C)c(=O)c(C)c32)c1` [Trametinib, trametinib], for which the “CI (median value)” value is listed as 0.705 in assay [1] and 0.652 in assay [2]. With `Cn1cnc2c(F)c(Nc3ccc(Br)cc3Cl)c(C(=O)NOCCO)cc21` [Selumetinib, selumetinib], the “CI (median value)” value in assay [1] came out at 0.674; in assay [2] it was 0.549.
